Legend:
hepatitis C virus = settings: as disclosed in U.S. Patent Application Publication No. 2004-0162318; cited from earlier work
[1] = thermodynamic stability of the crystalline form; format: physicochemical; settings: as indicated by its high melting point of about 175° C.
From the text: (§1) The first embodiment of the present invention is directed to a substantially pure polymorphic form A of 5-cyclopropyl-2-(4-fluorophenyl)-6-[(2-hydroxyethyl)(methylsulfonyl)amino]-N-methyl-1-benzofuran-3-carboxamide. The terms “polymorphic form”, “crystal modification”, “polymorph”, and “crystalline form” are used interchangeably herein. As used herein, the terms “isolated” and/or “substantially pure” mean more than 50% of the crystalline 5-cyclopropyl-2-(4-fluorophenyl)-6-[(2-hydroxyethyl)(methylsulfonyl)amino]-N-methyl-1-benzofuran-3-carboxamide or salt thereof is present in the form described herein and preferably at least 70%, more preferably at least 80%, and most preferably at least 90% of the crystalline form described herein is present. […] The peaks shown therein include: 8.4°, 9.0°, 9.8°, 10.1°, 12.6°, 12.9°, 13.2°, 13.4°, 15.9°, 16.4°, 16.8°, 17.4°, 17.9°, 18.4°, 18.5°, 19.0°, 19.2°, 19.7°, 19.8°, 20.0°, 20.2°, 20.5°, 21.0°, 21.7°, 22.2°, 22.6°, 23.6°, 24.0°, 24.5°, 24.7°, 24.9°, 25.3°, 25.9°, 26.0°, 26.5°, 26.9°, 27.3°, 27.6°, 28.1°, 28.7°, […], 30.0°, 30.7°, 31.0°, 31.9°, 32.1°, 32.5°, 33.6°, 34.4°, 34.8°, 35.1°, 35.6°, 36.7°, 36.9°, 37.5°, 38.4°, 38.8°, 39.2° and 39.6° (2θ degrees); one of ordinary skill in the art will readily understand that an about 0.1° to about 0.2° variation for peak positions is typical. […]

[2] = hygroscopicity on exposure to air; format: physicochemical; settings: exposed to air for a period of about 1 week
From the text: as §1

settling from suspension = format: physicochemical
From the text: as §1

In the case of `CNC(=O)c1c(-c2ccc(F)cc2)oc2cc(N(CCO)S(C)(=O)=O)c(C3CC3)cc12` [5-cyclopropyl-2-(4-fluorophenyl)-6-[(2-hydroxyethyl)(methylsulfonyl)amino]-N-methyl-1-benzofuran-3-carboxamide], the “inhibition of the hepatitis C virus” value (hepatitis C virus) is given as “potent inhibitor”.
In the case of `CNC(=O)c1c(-c2ccc(F)cc2)oc2cc(N(CCO)S(C)(=O)=O)c(C3CC3)cc12` [form A, 5-cyclopropyl-2-(4-fluorophenyl)-6-[(2-hydroxyethyl)(methylsulfonyl)amino]-N-methyl-1-benzofuran-3-carboxamide], the “thermodynamic stability of polymorph” value [1] is reported as “thermodynamically favored stable form”, the hygroscopicity [2] is reported as “non-hygroscopic” and the settling from suspension (settling from suspension) is reported as “tends to settle quickly from suspension”.
For `CNC(=O)c1c(-c2ccc(F)cc2)oc2cc(N(CCO)S(C)(=O)=O)c(C3CC3)cc12` [form B, 5-cyclopropyl-2-(4-fluorophenyl)-6-[(2-hydroxyethyl)(methylsulfonyl)amino]-N-methyl-1-benzofuran-3-carboxamide], the settling from suspension (settling from suspension) was “tends not to settle quickly from suspension”.

Reference: US20070265335A1, “POLYMORPHS OF 5-CYCLOPROPYL-2-(4-FLUOROPHENYL)-6-[(2-HYDROXYETHYL)(METHYLSUFONYL)AMINO]-N-METHYL-1-BENZOFURAN-3-CARBOXAMIDE AND METHODS OF MAKING THE SAME” (WYETH, priority 2005, published 2007)
